From ChEMBL document CHEMBL5303573, “Mapping human microbiome drug metabolism by gut bacteria and their genes” (Nature, 2019)

Experiments:
[1] = victivallis vadensis, 12 h, 2 µM
Description: The drug is tested on Victivallis vadensis strain: ATCC BAA-548 for biotransformation. The drug concentrations were measured before and after a 12-h incubation by liquid-chromatography-coupled mass spectrometry (LC–MS)

[2] = The drug is tested on Escherichia coli strain: BW25113 for biotransformation. The drug concentrations were measured before and after a 12-h incubation by liquid-chromatography-coupled mass spectrometry (LC–MS); settings: 2 µM
[3] = bacteroides thetaiotaomicron, 12 h, 2 µM
Description: The drug is tested on Bacteroides thetaiotaomicron strain: 3731 for biotransformation. The drug concentrations were measured before and after a 12-h incubation by liquid-chromatography-coupled mass spectrometry (LC–MS)

[4] = The drug is tested on Clostridium spiroforme strain: DSM1552 for biotransformation. The drug concentrations were measured before and after a 12-h incubation by liquid-chromatography-coupled mass spectrometry (LC–MS); settings: thomasclavelia spiroformis, 2 µM
[5] = The drug is tested on Bacteroides xylanisolvens strain: DSM18836 for biotransformation. The drug concentrations were measured before and after a 12-h incubation by liquid-chromatography-coupled mass spectrometry (LC–MS); settings: 2 µM
[6] = The drug is tested on Anaerococcus hydrogenalis strain: DSM7454 for biotransformation. The drug concentrations were measured before and after a 12-h incubation by liquid-chromatography-coupled mass spectrometry (LC–MS); settings: 2 µM
[7] = The drug is tested on Clostridium hathewayi strain: DSM13479 for biotransformation. The drug concentrations were measured before and after a 12-h incubation by liquid-chromatography-coupled mass spectrometry (LC–MS); settings: hungatella hathewayi, 2 µM
[8] = The drug is tested on Eubacterium ventriosum strain: ATCC27560 for biotransformation. The drug concentrations were measured before and after a 12-h incubation by liquid-chromatography-coupled mass spectrometry (LC–MS); format: ADME; parameters: dose 2 uM, timepoint 0 vs 12 hours; settings: 2 µM
[9] = clostridioides difficile, 12 h, 2 µM
Description: The drug is tested on Clostridium difficile strain: 120 for biotransformation. The drug concentrations were measured before and after a 12-h incubation by liquid-chromatography-coupled mass spectrometry (LC–MS)

[10] = The drug is tested on Salmonella typhimurium strain: LT2 for biotransformation. The drug concentrations were measured before and after a 12-h incubation by liquid-chromatography-coupled mass spectrometry (LC–MS); settings: salmonella enterica subsp. enterica, 2 µM
[11] = The drug is tested on Eggerthella lenta strain: ATCC25559 for biotransformation. The drug concentrations were measured before and after a 12-h incubation by liquid-chromatography-coupled mass spectrometry (LC–MS); settings: 2 µM
[12] = The drug is tested on Proteus penneri strain: ATCC35198 for biotransformation. The drug concentrations were measured before and after a 12-h incubation by liquid-chromatography-coupled mass spectrometry (LC–MS); settings: 2 µM

Row | Structure (SMILES) | Bacterial Biotransformation [1] | Bacterial Biotransformation [2] | Bacterial Biotransformation [3] | Bacterial Biotransformation [4] | Bacterial Biotransformation [5] | Bacterial Biotransformation [6] | Bacterial Biotransformation [7] | Bacterial Biotransformation [8] | Bacterial Biotransformation [9] | Bacterial Biotransformation [10] | Bacterial Biotransformation [11] | Bacterial Biotransformation [12]
1 | CCCCC1=NC2(CCCC2)C(=O)N1Cc1ccc(-c2ccccc2-c2nnn[nH]2)cc1 [IRBESARTAN] | Compound NOT metabolized | Compound metabolized | Compound NOT metabolized | Compound metabolized | Compound metabolized | Compound metabolized | Compound metabolized | Compound NOT metabolized | Compound NOT metabolized | – | – | –
2 | O=c1[nH]c2ccccc2n1C1CCN(CCCC(c2ccc(F)cc2)c2ccc(F)cc2)CC1 [PIMOZIDE] | Compound NOT metabolized | – | Compound NOT metabolized | – | Compound NOT metabolized | Compound NOT metabolized | – | Compound NOT metabolized | – | Compound NOT metabolized | – | –
3 | O=C([O-])C[C@H](O)C[C@H](O)/C=C/c1c(C2CC2)nc2ccccc2c1-c1ccc(F)cc1.O=C([O-])C[C@H](O)C[C@H](O)/C=C/c1c(C2CC2)nc2ccccc2c1-c1ccc(F)cc1.[Ca+2] [PITAVASTATIN CALCIUM] | Compound NOT metabolized | Compound NOT metabolized | Compound NOT metabolized | Compound NOT metabolized | Compound NOT metabolized | Compound NOT metabolized | – | Compound NOT metabolized | Compound NOT metabolized | – | Compound NOT metabolized | –
4 | COc1cc2nc(N3CCN(C(=O)c4ccco4)CC3)nc(N)c2cc1OC [PRAZOSIN] | – | – | Compound NOT metabolized | Compound NOT metabolized | Compound NOT metabolized | Compound NOT metabolized | Compound NOT metabolized | Compound NOT metabolized | – | – | – | –
5 | O=C1C(CC[S+]([O-])c2ccccc2)C(=O)N(c2ccccc2)N1c1ccccc1 (stereo unspecified) [SULFINPYRAZONE] | Compound NOT metabolized | Compound NOT metabolized | Compound NOT metabolized | Compound NOT metabolized | Compound metabolized | Compound NOT metabolized | Compound NOT metabolized | Compound NOT metabolized | – | – | Compound metabolized | –
6 | Nc1c2c(nc3ccccc13)CCCC2 [TACRINE] | – | – | Compound NOT metabolized | Compound NOT metabolized | Compound NOT metabolized | Compound NOT metabolized | Compound NOT metabolized | Compound NOT metabolized | Compound NOT metabolized | Compound NOT metabolized | – | Compound NOT metabolized
7 | C=CC[C@@H]1/C=C(\C)C[C@H](C)C[C@H](OC)[C@H]2O[C@@](O)(C(=O)C(=O)N3CCCC[C@H]3C(=O)O[C@H](/C(C)=C/[C@@H]3CC[C@@H](O)[C@H](OC)C3)[C@H](C)[C@@H](O)CC1=O)[C@H](C)C[C@@H]2OC.O [TACROLIMUS] | Compound metabolized | Compound metabolized | Compound NOT metabolized | – | Compound metabolized | Compound metabolized | – | Compound NOT metabolized | – | – | Compound metabolized | –
8 | CN(C/C=C/C#CC(C)(C)C)Cc1cccc2ccccc12 [TERBINAFINE] | Compound NOT metabolized | Compound NOT metabolized | Compound NOT metabolized | – | Compound NOT metabolized | Compound NOT metabolized | – | Compound NOT metabolized | – | – | Compound NOT metabolized | –
9 | CC(C)(C)NC[C@H](O)COc1nsnc1N1CCOCC1.O=C(O)/C=C\C(=O)O [TIMOLOL MALEATE] | – | – | Compound NOT metabolized | Compound NOT metabolized | Compound NOT metabolized | Compound NOT metabolized | Compound NOT metabolized | Compound NOT metabolized | Compound NOT metabolized | – | – | –
10 | CC[C@@]1(O)C(=O)OCc2c1cc1n(c2=O)Cc2cc3c(CN(C)C)c(O)ccc3nc2-1 [TOPOTECAN] | Compound NOT metabolized | Compound NOT metabolized | Compound NOT metabolized | – | Compound NOT metabolized | Compound NOT metabolized | – | Compound NOT metabolized | – | – | Compound NOT metabolized | –
11 | COc1ccc(CN2CCNCC2)c(OC)c1OC.Cl.Cl [TRIMETAZIDINE DIHYDROCHLORIDE] | Compound NOT metabolized | Compound NOT metabolized | Compound metabolized | – | Compound metabolized | Compound NOT metabolized | – | Compound NOT metabolized | – | – | Compound NOT metabolized | –
12 | CC(CN(C)C)CN1c2ccccc2CCc2ccccc21.O=C(O)/C=C\C(=O)O (stereo unspecified) [TRIMIPRAMINE MALEATE] | Compound NOT metabolized | Compound NOT metabolized | Compound NOT metabolized | – | Compound NOT metabolized | Compound NOT metabolized | – | Compound NOT metabolized | – | – | Compound NOT metabolized | –
13 | CN1[C@@H]2CC[C@H]1C[C@@H](OC(=O)c1c[nH]c3ccccc13)C2 [TROPISETRON] | Compound NOT metabolized | Compound NOT metabolized | Compound NOT metabolized | – | Compound NOT metabolized | Compound NOT metabolized | – | Compound NOT metabolized | – | – | Compound NOT metabolized | –
14 | COc1ccc(C(CN(C)C)C2(O)CCCCC2)cc1 (stereo unspecified) [VENLAFAXINE] | Compound NOT metabolized | Compound NOT metabolized | Compound NOT metabolized | – | Compound NOT metabolized | Compound NOT metabolized | – | Compound NOT metabolized | – | – | Compound NOT metabolized | –
15 | CS(=O)(=O)O.O.O.O.O=C1Cc2cc(CCN3CCN(c4nsc5ccccc45)CC3)c(Cl)cc2N1 [ZIPRASIDONE MESYLATE] | Compound NOT metabolized | Compound metabolized | Compound NOT metabolized | – | Compound NOT metabolized | Compound NOT metabolized | – | Compound NOT metabolized | – | – | Compound NOT metabolized | –
